Experimental data taken from patent US20220243160A1, “Method and Apparatus for Interrogating Biological Systems” (Arizona Board of Regents on Behalf of the University of …, priority 2019, published 2022).
One block for each compound: values may come before it.

What was measured:
Type in all cases: cell-based
[1] = test system: SKOV3 ovarian cancer cells; experiment: MTT antiproliferative assay on SKOV3 cells in monolayer (2D); conditions: for IC50: SKOV3 cells cultured in monolayer, 48 h exposure
[2] = test system: SKOV3 spheroids; experiment: MTT antiproliferative assay on SKOV3 spheroids; conditions: for antiproliferative effect: SKOV3 spheroids; for IC50: SKOV3 spheroids (5 days formation), 48 h exposure
Method: Twenty thousand cells were seeded in an ultra-low affinity round bottom 96 well plates and 5 days were allowed for spheroids formation. […] Error bars represent mean±SEM from 3 independent experiments of at least 6 replicates each.

[3] = test system: ovarian cancer cells cultivated in a 2D cell arrangement; experiment: Clonogenic assay for radiosensitizing effect, 2D culture; conditions: 0.7 μM 1 h before irradiation at 0, 2, 4 or 6 Gy
Method: The radiosensitizing effect was assessed with a clonogenic assay. […] The medium was removed right after irradiation and replaced by a drug-free medium, changed twice a week for the rest of the experiment. Clonogenic assay was stopped when colonies containing at least 50 cells were observed under the microscope. Error bar represent mean±SEM from 3 independent experiments with at least 2 replicates each.

[4] = test system: Monolayer SKOV3 cells; experiment: γ-H2AX / 53BP1 foci immunofluorescence after irradiation; conditions: 0.7 μM 1 h before irradiation at 0 or 2 Gy, 6 h, 24 h after irradiation
Method: Cells were seeded on coverslip at a density of 5×10^4 per mL and exposed to DMSO or WD at a concentration of 0.7 μM 1 h before being irradiated at 0 or 2 Gy. The medium was removed and replaced by a drug-free medium immediately after irradiation. FIG. 6A. Images of immunofluorescence elicited in SKOV3 cells 1 h, 6 h and 24 h after irradiation taken using an Epifluorescence microscope at a magnification of 63×. […] Scale bar=10 μm. […] Values are normalized with non-irradiated cells, exposed to DMSO or WD respectively. […] Values are normalized with non-irradiated cells, exposed to DMSO or WD respectively. All the data are presented as the mean±SEM of at least 60 nuclei. *Significant differences as determined by Student's t-test (p<0.05).

[5] = test system: NHEJ DNA repair pathway; experiment: Western blot of DNA repair proteins after irradiation; conditions: SKOV3 2D, 0.7 μM 1 h before irradiation at 0 or 2 Gy
Method: Western blot showing expression level of ATM, S1981pATM, DNA-PKcs, S2056pDNA-PKcs, XRCC4, RPA70 and RAD51 in SKOV3 cells cultivated in 2D. Cells were exposed to DMSO or WD at a concentration of 0.7 μM 1 h before undergoing an irradiation at 0 or 2 Gy. Proteins within cells were extracted 1 h, 6 h or 24 h after irradiation. A total of 5 μg of proteins was loaded. Bands intensities were quantified using ImageJ, normalized with GAPDH. Numbers represent expression level compared to non-irradiated cells. NI=Non-irradiated samples.

[6] = test system: spheroids of SKOV3 ovarian cancer cells; experiment: Spheroid volume growth after drug and irradiation; conditions: 0.7 μM 1 h before irradiation at 0 Gy or 4 Gy, followed 19 days
Method: FIG. 8 includes a schematic overview of experiment. Cells were plated in an ultra-low affinity 96 well plate with a round bottom and allowed to form spheroids for 5 days. […] The medium containing drug was replaced by a drug-free medium after 4 days, then freshly changed twice a week for the rest of the experiment. Diameter of each spheroid was measured two or three times a week for 19 days with Micrometrics SE Premium software. Spheroid volume growth over time. Volume were normalized to day 0. Error bars represent mean±SEM for at least 5 replicates.

Structure (SMILES): CC1=C(C)C(=O)O[C@@H]([C@](C)(O)[C@H]2CC[C@H]3[C@@H]4C[C@H]5O[C@]56[C@@H](O)C=CC(=O)[C@]6(C)[C@H]4CC[C@]23C)C1 [WD, withanolide D]
- cytotoxic effect ([1]; SKOV3 2D, 0.156 to 80 μM, 48 h): dose-dependent cytotoxic effect
- IC50 [1]: 4.2 µM
- antiproliferative effect [2]: significant antiproliferative effect
- IC50 [2]: 16 µM
- radiosensitizing effect [3]: have a radiosensitizing effect
- DNA DSBs (γ-H2AX and 53BP1 foci) versus DMSO [4]: more DNA DSBs over 24 h than those exposed to DMSO
- mechanism of radiosensitization (expression of ATM, pATM, DNA-PKcs, pDNA-PKcs, XRCC4, RPA70, RAD51) [5]: inhibiting the NHEJ DNA repair pathway
- radiosensitization of spheroids (normalized volume) [6]: do not radiosensitize

- IC50 [1]: 4.4 µM
- IC50 [2]: 23 µM
Structure (SMILES): CC1=C(CO)C(=O)O[C@@H]([C@@H](C)[C@H]2CC[C@H]3[C@@H]4C[C@H]5O[C@]56[C@@H](O)C=CC(=O)[C@]6(C)[C@H]4CC[C@]23C)C1 [WFA, withaferin A]
- antiproliferative effect [2]: significant antiproliferative effect
- radiosensitizing effect [3]: have a radiosensitizing effect
- radiosensitization of spheroids (normalized volume) [6]: do not radiosensitize
